According to patent publication US9408859B2, “Pharmaceutical compositions useful for preventing and treating cancer” (Mitotech SA, priority 2007, dated 2016):

What was measured:
[1] = system: Mouse Ras-transformed fibroblast cells; experiment: Effect on morphology and adherence of Ras-transformed cells; assay type: cell-based
Method: The experiment was carried out using cells, transformed with genetic construct, expressing oncogene RAS, and thus modeling conditions of cells underwent cancerous transformation. (see, model description in Levina, et al. (1996), Exp. Cell. Res., November 25; 229(1):159-165).
Mouse Ras-transformed fibroblast cells had strongly expressed changed morphology (FIG. 1), one close to morphology of metastasizing cancerous cells (decrease in surface square, cell elongation). […] Cells were poorly adherent and spread-eagled what led to monolayer structure disorder.
However incubation with SkQ1 led to significant changes in cells morphology (FIG. 1). […] Morphological changes correlated with actinic fibrils increase in content, focal contact reinforcement and cell better adherence to the surface.

Ehrlich's carcinoma = experiment: Anti-tumoral effect on hypodermic Ehrlich's carcinoma; assay type: in vivo, mouse; settings: 0.5 nM/kg ip
Method: The experiment was performed according to the methods described in Example 2.
Injection of the preparation started 48 hours after transplantation and proceeded during 5, 10, 15, and 30 days. For tumor treatment efficiency, estimations of tumor volumes were evaluated many times after end of short courses or once after end of the 30-day course. […] The results were then statistically calculated using confidence intervals of mean values of compared values, difference stated reliable if p<0.05.

HCT116 p53+/+ = experiment: Growth of human large intestine carcinoma xenografts, wild type p53; assay type: in vivo, mouse; settings: SkQ1 in drinking water, 0.5-50 nM/kg/day, 4 weeks
From the text: Two human large intestine carcinoma cell sub-lines that differ by p53 status—wild type cells (HCT116 p53+/+)) and cells with inactivated p53 (HCT116 p53−/−)) cell line cultivation see in Bunz et al. (1998) Science, 282:1497-1500; see model description in Sablina et al. (2003), J. Biol. Chem., 278:27362-27371. One million cells were hypodermically implanted into thymus-deprived mice. Mice in each group were divided into 4 sub-groups of 10 mice: one group received water to drink; one group received water with SkQ1 (0.01 nmol) per mouse per day (0.5 nM/kg/day); one group received water with SkQ1 (0.1 nmol) per mouse per day (5 nM/kg/day); one group received water with SkQ1 (1 nmol) per mouse per day (50 nM/kg/day).
The size of the tumors was evaluated every 3 days. After 4 weeks mice were sacrificed and the tumors removed and fixed for histological assay.

Lung Lewis's carcinoma = experiment: SkQ1 combined with doxorubicin on growth of lung Lewis's carcinoma; assay type: in vivo, mouse; settings: regime per group
Method: For development of oncological diseases joint therapy that combines SkQ1 and chemotherapy, a study on SkQ1 influence on single doxorubicin injection efficiency was performed (one of the mechanisms of the preparation is activation of oxidative processes in normal and cancerous cells). SkQ1 was introduced before, simultaneously, or after introduction of doxorubicin in maximum dose of 500 nM/kg (in order to block oxidative mechanism of doxorubicin influence).
Doxorubicin was applied before, after, and during the course of SkQ1.

[2] = Mouse life-span when managed in a chamber without sterile aeration; assay type: in vivo; settings: SkQ1 added to drinking water
[3] = system: human rhabdomyosarcoma cell line (RD); experiment: Apoptosis in RD cells (Hoechst staining, propidium iodide flow cytometry); assay type: cell-based; settings: 20 nM SkQ1 for 24 hours; flow cytometry
Method: To determine the viability of the cells, chromatine condensation and fragmentation was analyzed in similarly-treated cells (20 nM SkQ or 1 mM NAC or 100 mM Trolox for 24 hours and 1 μm FCCP one hour before SkQ1 where indicated) after staining with Hoechst 3342 (GenScript, Cat. No. L00309, performed according to manufacture manual http://www.genscript.com/tech_guide/TM0361.pdf). The cells were then examined using an Axiovert fluorescent microscope equipped with objectives 20× (dry) and 100× (oil immersion Neofluar) (Carl Zeiss).
Further evidence of apoptosis was obtained by analysis of DNA content in the cellular population using flow cytometry. Cells were incubated with 0.05% ethanol was added (control) or with 20 nM SkQ1 for 24 hours, and then fixed and stained with propidium iodide (5 μM). They were then analyzed by flow cytometry using a FC-500 FACS (Beckman Coulter, Inc., Brea, Calif.).

## CC1=C(C)C(=O)C(CCCCCCCCCC[P+](c2ccccc2)(c2ccccc2)c2ccccc2)=CC1=O [SkQ1]
[1]; Ras-transformed fibroblasts incubated with SkQ1
  Mean cell surface square value: increased manifold
[1]; Ras-transformed fibroblasts treated with SkQ1
  Monolayer formation: formed monolayers similar to those of normal fibroblasts
Ehrlich's carcinoma; 5-day course, days 2-7, day 7 after transplantation
  tumor volume: 251 mm³
Ehrlich's carcinoma; 5-day course, day 7
  TGS%: 40%
Ehrlich's carcinoma; 5-day course, day 14
  TGS%: 23%
  tumor volume: 547 mm³
Ehrlich's carcinoma; 5-day course, day 21
  TGS%: 16%
  tumor volume: 1000 mm³
Ehrlich's carcinoma; 10-day course, days 2-13, day 7
  tumor volume: 228 mm³
Ehrlich's carcinoma; 10-day course, day 7
  TGS%: 45%
Ehrlich's carcinoma; 10-day course, day 14
  TGS%: 34%
  tumor volume: 474 mm³
Ehrlich's carcinoma; 10-day course, day 21
  TGS%: 28%
  tumor volume: 853 mm³
Ehrlich's carcinoma; 15-day course, days 2-16, day 7
  tumor volume: 259 mm³
Ehrlich's carcinoma; 15-day course, day 7
  TGS%: 38%
Ehrlich's carcinoma; 15-day course, day 14
  TGS%: 36%
  tumor volume: 459 mm³
Ehrlich's carcinoma; 15-day course, day 21
  TGS%: 29%
  tumor volume: 838 mm³
HCT116 p53+/+
  Tumor growth vs control group receiving pure water: suppression of tumor growth
Lung Lewis's carcinoma; Day 7, SkQ 500 nmol 0.2 ml/mouse per os x5, DOX 7 mg/kg ip
  TGS %, by tumor volume: 33%
Lung Lewis's carcinoma; Day 7, SkQ 500 nmol 0.2 ml/mouse per os x5, DOX 7 mg/kg ip, listed as SkQ
  TGS %, by tumor volume: 33^ %
Lung Lewis's carcinoma; Day 10
  TGS %, by tumor volume: 42%
Lung Lewis's carcinoma; Day 14
  TGS %, by tumor volume: 48%
Lung Lewis's carcinoma; Day 17
  TGS %, by tumor volume: 28%
Lung Lewis's carcinoma; Day 21
  TGS %, by tumor volume: 30%
[2]
  Immunity to infectious diseases (by mouse life-span): increased HIV mice immunity to infectious diseases
[3]
  sub-G1 peak (DNA content, propidium iodide): accumulation of apoptotic bodies
